pIC50: −log10 of the molar value.
Biological target: canine TRPM8 (Canis lupus familiaris, UniProt Q1A7N1)
Experiment: In Vitro Canine TRPM8 Functional Assay (Ca2+ fluorescence, icilin activation)
Type: cell-based
Settings: for pIC50: HEK293 cells stably expressing canine TRPM8, icilin activation, eight-point dose-response, read-out: IC50; for inhibition at 0.2 µM / % Inh @ 0.2 (μM): compound at 0.2 μM, canine TRPM8, icilin activation; for inhibition at 0.2 µM: read-out: % Inh @ 0.2
Summary of the method: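 Cells (HEK293, stable canine TRPM8) are seeded 24 h before assay. They are then dye-loaded with Calcium 3 at 37 °C followed by room temperature. Compound is added and monitored for 5 min, after which icilin (~80% maximal response) is added.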

canine TRPM8, sequence (Q1A7N1 1-1104): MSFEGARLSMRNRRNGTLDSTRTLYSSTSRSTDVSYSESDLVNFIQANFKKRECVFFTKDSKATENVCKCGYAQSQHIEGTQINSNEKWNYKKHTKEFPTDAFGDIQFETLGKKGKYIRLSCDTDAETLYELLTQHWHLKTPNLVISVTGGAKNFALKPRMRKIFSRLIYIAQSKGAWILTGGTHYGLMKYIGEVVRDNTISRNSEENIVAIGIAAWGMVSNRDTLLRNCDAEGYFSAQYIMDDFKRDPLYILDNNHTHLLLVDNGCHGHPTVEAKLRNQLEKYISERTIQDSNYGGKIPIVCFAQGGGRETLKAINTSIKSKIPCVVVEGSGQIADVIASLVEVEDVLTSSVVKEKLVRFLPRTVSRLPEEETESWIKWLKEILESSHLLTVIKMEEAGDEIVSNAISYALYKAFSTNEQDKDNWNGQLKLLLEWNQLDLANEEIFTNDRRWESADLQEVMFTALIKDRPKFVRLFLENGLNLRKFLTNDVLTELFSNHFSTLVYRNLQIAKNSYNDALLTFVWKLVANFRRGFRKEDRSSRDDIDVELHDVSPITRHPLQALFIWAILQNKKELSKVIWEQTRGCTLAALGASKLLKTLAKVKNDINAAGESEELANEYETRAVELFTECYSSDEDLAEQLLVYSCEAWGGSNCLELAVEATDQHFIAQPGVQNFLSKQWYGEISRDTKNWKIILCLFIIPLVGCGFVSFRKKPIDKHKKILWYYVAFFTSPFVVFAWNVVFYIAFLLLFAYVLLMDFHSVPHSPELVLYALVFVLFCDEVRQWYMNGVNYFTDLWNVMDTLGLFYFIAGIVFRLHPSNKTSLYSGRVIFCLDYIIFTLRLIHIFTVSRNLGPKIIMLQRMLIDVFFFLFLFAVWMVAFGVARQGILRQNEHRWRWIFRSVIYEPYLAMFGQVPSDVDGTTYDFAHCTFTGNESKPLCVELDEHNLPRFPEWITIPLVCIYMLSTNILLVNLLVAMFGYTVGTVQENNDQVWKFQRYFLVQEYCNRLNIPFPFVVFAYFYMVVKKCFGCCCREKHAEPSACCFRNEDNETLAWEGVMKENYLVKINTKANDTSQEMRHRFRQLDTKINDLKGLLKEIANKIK

| SMILES | pIC50 | inhibition at 0.2 µM [%] | % Inh @ 0.2 (μM) [%] |
| --- | --- | --- | --- |
| Nc1ccc(S(=O)(=O)N(CCC(F)(F)F)c2sc3ccccc3c2Br)cc1 [Compound 587, 4-Amino-N-(3-bromo-benzo[b]thiophen-2-yl)-N-(3,3,3-trifluoro-propyl)-benzenesulfonamide] | 8.41 | 100 |  |
| Nc1ccc(S(=O)(=O)N(CCC(F)(F)F)c2sc3ccccc3c2Br)cc1Br [Compound 588, 4-Amino-3-bromo-N-(3-bromo-benzo[b]thiophen-2-yl)-N-(3,3,3-trifluoro-propyl)-benzenesulfonamide] | 7.92 | 101 |  |
| Cc1c(N(CCC2CC2)S(=O)(=O)c2ccc(C(=O)O)cc2F)sc2ccccc12 [Compound 589, N-(3-Methyl-benzo[b]thiophen-2-yl)-N-(2-cyclopropyl-ethyl)-2-fluoro-4-carboxy-benzenesulfonamide] | 8.38 | 100 |  |
| Cc1c(N(CCC(F)(F)F)S(=O)(=O)c2ccc(C(=O)O)cc2F)sc2ccccc12 [Compound 590, N-(3-Methyl-benzo[b]thiophen-2-yl)-N-(3,3,3-trifluoro-propyl)-2-fluoro-4-carboxy-benzenesulfonamide] | 8.21 | 101 |  |
| Cc1c(N(CCCCC(F)(F)F)S(=O)(=O)c2ccc(C(=O)O)cc2F)sc2ccccc12 [Compound 591, N-(3-Methyl-benzo[b]thiophen-2-yl)-N-(5,5,5-trifluoro-pentyl)-2-fluoro-4-carboxy-benzenesulfonamide] | 8.38 | 101 |  |
| Cc1c(N(Cc2ccc(F)c(C(F)(F)F)c2)S(=O)(=O)c2ccc(C(=O)O)cc2F)sc2ccccc12 [Compound 592, N-(3-Methyl-benzo[b]thiophen-2-yl)-N-(4-fluoro-3-trifluoromethyl-benzyl)-2-fluoro-4-carboxy-benzenesulfonamide] | 8.74 | 101 |  |
| CCCCN(c1sc2ccccc2c1C)S(=O)(=O)c1ccc(C(=O)O)cc1F [Compound 593, N-(3-Methyl-benzo[b]thiophen-2-yl)-N-(butyl)-2-fluoro-4-carboxy-benzenesulfonamide] | 8.12 | 101 |  |
| O=S(=O)(c1ccc(-c2nnn[nH]2)cc1)N(CCC1CC1)c1sc2ccccc2c1Br [Compound 594, N-(3-Bromo-benzo[b]thiophen-2-yl)-N-(2-cyclopropyl-ethyl)-4-(1H-tetrazol-5-yl)-benzenesulfonamide] |  | 101 |  |
| O=S(=O)(c1ccc(-c2nnn[nH]2)cc1)N(CCC(F)(F)F)c1sc2ccccc2c1Br [Compound 595, N-(3-Bromo-benzo[b]thiophen-2-yl)-N-(3,3,3-trifluoro-propyl)-4-(1H-tetrazol-5-yl)-benzenesulfonamide] |  | 101 |  |
| O=S1NC(c2ccc(S(=O)(=O)N(CCC(F)(F)F)c3cc4ccccc4s3)cc2)=NO1 (centres unmarked) [Compound 596, N-(Benzo[b]thiophen-2-yl)-N-(3,3,3-trifluoro-propyl)-4-(3H-[1,2,3,5]oxathiadiazole-2-oxide)-benzenesulfonamide] |  |  | 17 |
| Cc1c(N(CCC(F)(F)F)S(=O)(=O)c2ccc(C3=NOS(=O)N3)cc2)sc2ccccc12 (centres unmarked) [Compound 598, N-(3-Methyl-benzo[b]thiophen-2-yl)-N-(3,3,3-trifluoro-propyl)-4-(3H-[1,2,3,5]oxathiadiazole-2-oxide)-benzenesulfonamide] | 7.51 |  | 101 |
| Cc1c(N(CCC(F)(F)F)S(=O)(=O)c2ccc(-c3noc(=O)[nH]3)cc2)sc2ccccc12 [Compound 599, N-(3-Methyl-benzo[b]thiophen-2-yl)-N-(3,3,3-trifluoro-propyl)-4-(5-oxo-4,5-dihydro-[1,2,4]oxadiazol-3-yl)-benzenesulfonamide] | 7.79 | 101 |  |
| COC(=O)CCS(=O)(=O)N(CCC1CC1)c1sc2ccccc2c1C [Compound 600, N-(2-Cyclopropyl-ethyl)-N-(3-methyl-benzo[b]thiophen-2-yl)-2-carbomethoxy-ethanesulfonamide] | 8.05 | 101 |  |
| COC(=O)CCS(=O)(=O)N(CCC(F)(F)F)c1sc2ccccc2c1C [Compound 601, N-(3-Methyl-benzo[b]thiophen-2-yl)-N-(3,3,3-trifluoro-propyl)-2-carbomethoxy-ethanesulfonamide] |  | 100 |  |
| COC(=O)CCS(=O)(=O)N(CCCC(F)(F)F)c1sc2ccccc2c1C [Compound 602, N-(3-Methyl-benzo[b]thiophen-2-yl)-N-(4,4,4-trifluoro-butyl)-2-carbomethoxy-ethanesulfonamide] | 7.66 | 101 |  |
| COC(=O)CCS(=O)(=O)N(CCCCC(F)(F)F)c1sc2ccccc2c1C [Compound 603, N-(3-Methyl-benzo[b]thiophen-2-yl)-N-(5,5,5-trifluoro-pentyl)-2-carbomethoxy-ethanesulfonamide] | 7.99 | 101 |  |

| SMILES | pIC50 | inhibition at 0.2 µM [%] | % Inh @ 0.2 (μM) [%] |
| --- | --- | --- | --- |
| Cc1c(N(CCC(F)(F)F)S(=O)(=O)CCC(=O)O)sc2ccccc12 [Compound 604, N-(3-Methyl-benzo[b]thiophen-2-yl)-N-(3,3,3-trifluoro-propyl)-2-carboxy-ethanesulfonamide] |  | 13 |  |
| Cc1c(N(CCCC(F)(F)F)S(=O)(=O)CCC(=O)O)sc2ccccc12 [Compound 605, N-(3-Methyl-benzo[b]thiophen-2-yl)-N-(4,4,4-trifluoro-butyl)-2-carboxy-ethanesulfonamide] |  | 18 |  |
| Cc1c(N(CCCCC(F)(F)F)S(=O)(=O)CCC(=O)O)sc2ccccc12 [Compound 606, N-(3-Methyl-benzo[b]thiophen-2-yl)-N-(5,5,5-trifluoro-pentyl)-2-carboxy-ethanesulfonamide] | 7.04 | 75 |  |
| O=S1NC(c2ccc(S(=O)(=O)N(CCC(F)(F)F)c3sc4ccccc4c3Br)cc2)=NO1 (centres unmarked) [Compound 607, N-(3-Bromo-benzo[b]thiophen-2-yl)-N-(3,3,3-trifluoro-propyl)-4-(3H-[1,2,3,5]oxathiadiazole-2-oxide)-benzenesulfonamide] | 7.43 |  | 101 |
| O=c1[nH]c(-c2ccc(S(=O)(=O)N(CCC(F)(F)F)c3sc4ccccc4c3Br)cc2)no1 [Compound 608, N-(3-Bromo-benzo[b]thiophen-2-yl)-N-(3,3,3-trifluoro-propyl)-4-(5-oxo-4,5-dihydro-[1,2,4]oxadiazol-3-yl)-benzenesulfonamide] |  | 101 |  |
| O=c1[nH]c(-c2ccc(S(=O)(=O)N(CCC(F)(F)F)c3sc4ccccc4c3Cl)cc2)no1 [Compound 609, N-(3-Chloro-benzo[b]thiophen-2-yl)-N-(3,3,3-trifluoro-propyl)-4-(5-oxo-4,5-dihydro-[1,2,4]oxadiazol-3-yl)-benzenesulfonamide] | 7.27 | 99 |  |
| O=S1NC(c2ccc(S(=O)(=O)N(CCC3CC3)c3cc4ccccc4s3)cc2)=NO1 (centres unmarked) [Compound 610, N-(Benzo[b]thiophen-2-yl)-N-(cyclopropyl-ethyl)-4-(3H-[1,2,3,5]oxathiadiazole-2-oxide)-benzenesulfonamide] |  |  | 55 |
| Cc1c(N(CCC2CC2)S(=O)(=O)c2ccc(C3=NOS(=O)N3)cc2)sc2ccccc12 (centres unmarked) [Compound 611, N-(3-Methyl-benzo[b]thiophen-2-yl)-N-(cyclopropyl-ethyl)-4-(3H-[1,2,3,5]oxathiadiazole-2-oxide)-benzenesulfonamide] | 7.84 |  | 101 |
| O=c1[nH]c(-c2ccc(S(=O)(=O)N(CCC3CC3)c3cc4ccccc4s3)cc2)no1 [Compound 612, N-(Benzo[b]thiophen-2-yl)-N-(cyclopropyl-ethyl)-4-(5-oxo-4,5-dihydro-[1,2,4]oxadiazol-3-yl)-benzenesulfonamide] | 7.27 | 97 |  |
| Cc1c(N(CCC2CC2)S(=O)(=O)c2ccc(-c3noc(=O)[nH]3)cc2)sc2ccccc12 [Compound 613, N-(3-Methyl-benzo[b]thiophen-2-yl)-N-(cyclopropyl-ethyl)-4-(5-oxo-4,5-dihydro-[1,2,4]oxadiazol-3-yl)-benzenesulfonamide] | 8.18 | 101 |  |
| Cc1c(N(CCC2CC2)S(=O)(=O)c2ccccc2)sc2ccccc12 [Compound 614, N-(2-Cyclopropyl-ethyl)-N-(3-methyl-benzo[b]thiophen-2-yl)-benzenesulfonamide] | 8.13 | 101 |  |
| Cc1c(N(CCC(F)(F)F)S(=O)(=O)c2ccccc2)sc2ccccc12 [Compound 615, N-(3-Methyl-benzo[b]thiophen-2-yl)-N-(3,3,3-trifluoro-propyl)-benzenesulfonamide] | 8.14 | 101 |  |
| Cc1c(N(CCCC(F)(F)F)S(=O)(=O)c2ccccc2)sc2ccccc12 [Compound 616, N-(3-Methyl-benzo[b]thiophen-2-yl)-N-(4,4,4-trifluoro-butyl)-benzenesulfonamide] | 7.89 | 101 |  |
| Cc1c(N(CCCCC(F)(F)F)S(=O)(=O)c2ccccc2)sc2ccccc12 [Compound 617, N-(3-Methyl-benzo[b]thiophen-2-yl)-N-(5,5,5-trifluoro-pentyl)-benzenesulfonamide] | 8.13 | 101 |  |
| CC1=C(N(CCC2CC2)S(=O)(=O)c2ccccc2)S(=O)(=O)c2ccccc21 [Compound 618, N-(2-Cyclopropyl-ethyl)-N-(3-methyl-1,1-dioxo-benzo[b]thiophen-2-yl)-benzenesulfonamide] | 7.98 | 101 |  |
| CC1=C(N(CCC(F)(F)F)S(=O)(=O)c2ccccc2)S(=O)(=O)c2ccccc21 [Compound 619, N-(3-Methyl-1,1-dioxo-benzo[b]thiophen-2-yl)-N-(3,3,3-trifluoro-propyl)-benzenesulfonamide] | 7.40 | 101 |  |

— patent US9434711B2 (Janssen Pharmaceutica, NV, priority 2007, dated 2016)
